One data set deals with BMMC cells. The experiment in a line: Phosphorylation of proteins downstream of Syk kinase in the IgE receptor cascade, activated BMMC cells. It counts as cell-based, mouse. To be noted: varying concentrations, FIG. 7.
For data set [1], the system named is cultured human mast cells (CHMC). The experiment in a line: CHMC high cell density IgE activation: IL-13. It counts as cell-based. To be noted: anti-IgE activation. As for the experimental part:
Inhibition of degranulation was measured at both low and high cell density by quantifying the release of the granule specific factors tryptase, histamine and hexosaminidase. Inhibition of release and/or synthesis of lipid mediators was assessed by measuring the release of leukotriene LTC4 and inhibition of release and/or synthesis of cytokines was monitored by quantifying TNF-α, IL-6 and IL-13. Tryptase and hexosaminidase were quantified using fluorogenic substrates as described in their respective examples. […] The protocols of the various assays are provided below.
After sensitizing, cells are counted, pelleted (1000 rpm, 5-10 minutes), and resuspended at 1-2×10^6 cells/ml in MT buffer. Add 100 ul of cell suspension to each well and 100 ul of compound dilutions. The final vehicle concentration is 0.5% DMSO. Incubate at 37° C. (5% CO2) for 1 hour. After 1 hour of compound treatment, stimulate cells with 6× anti-IgE. Mix wells with the cells and allow plates to incubate at 37° C. (5% CO2) for one hour. After 1 hour incubation, pellet cells (10 minutes, 1000 RPM) and collect 200 ul per well of the supernatant, being careful not to disturb pellet. Place the supernatant plate on ice. During the 7-hour step (see next) perform tryptase assay on supernatant that had been diluted 1:500. Resuspend cell pellet in 240 ul of CM media containing 0.5% DMSO and corresponding concentration of compound. Incubate CHMC cells for 7 hours at 37° C. (5% CO2). After incubation, pellet cells (1000 RPM, 10 minutes) and collect 225 ul per well and place in −80° C. until ready to perform ELISAS. ELISAS are performed on appropriately diluted samples (determined empirically for each donor cell population so that the sample measurement falls within the standard curve) following the supplier's instructions.

Data set [2] has as its system bone marrow derived mast cells (BMMC). The experiment in a line: BMMC high cell density IgE activation: histamine. Particulars: anti-IgE, second part of TABLE 1. It counts as cell-based, mouse. The procedure, abridged:
(§1)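 IgE-sensitized BMMC (1-3×10^6 cells/ml, MT buffer) were pretreated with compound for 1 h at 37 °C in 0.5% DMSO, then stimulated with DNP-BSA (6× stimulus, 60 ng/ml) for 1 h. Supernatant was taken, and cells were re-incubated 4–5 h in WEI-conditioned medium with compound. Mediators were quantified by ELISA.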

The test system is the same in data set [3]. The experiment in a line: BMMC high cell density IgE activation: LTC4. It counts as cell-based, mouse. Particulars: anti-IgE, second part of TABLE 1. The procedure, abridged: as §1
Data set [4] shares this test system. The experiment in a line: BMMC high cell density IgE activation: TNFalpha. It counts as cell-based, mouse. Particulars: anti-IgE, second part of TABLE 1, read-out: BMMC anti-IgE TNF-alpha IC50. In a few lines:
as §1

Another data set deals with basophil cells. The experiment in a line: Basophil dustmite activation: histamine release assay. The data set is classed as cell-based. To be noted: human basophils, house dustmite stimulus; second part of TABLE 1. As for the experimental part:
The basophil activation assay was carried out using whole human peripheral blood from donors allergic to dust mites with the majority of the red blood cells removed by dextran sedimentation. Human peripheral blood was mixed 1:1 with 3% dextran T500 and RBCs were allowed to settle for 20-25 min. The upper fraction was diluted with 3 volumes of D-PBS and cells were spun down for 10 min at 1500 rpm, RT. Supernatant was aspirated and cells were washed in an equal volume MT-buffer. Finally, cells were resuspended in MT-buffer containing 0.5% DMSO in the original blood volume. 80 uL cells were mixed with 20 uL compound in the presence of 0.5% DMSO, in triplicate, in a V-bottom 96-well tissue culture plate. A dose range of 8 compound concentrations was tested resulting in a 10-point dose response curve including maximum (stimulated) and minimum (unstimulated) response. […] The cells were stimulated for 30 minutes at 37° C., 5% CO2. The plate was spun for 10 min at 1500 rpm at room temperature and 80 uL the supernatant was harvested for histamine content analysis using the histamine ELISA kit supplied by Immunotech. The ELISA was performed according to supplier's instructions.

The subject of data set [5] is IgE-induced degranulation of tissue mast cells. The experiment in a line: Mouse model of passive cutaneous anaphylaxis (PCA). It counts as in vivo. To be noted: for % Inhibition (PCA) / Plasma level: PO, 1.5% Avicel/water, pretreatment 15 min. As for the experimental part: This model provides a direct measure of IgE-induced degranulation of tissue mast cells. In this model, IgE primed animals are exposed to an allergen challenge, and the change in permeability of dermal vasculature that results from histamine release from mast cells is measured by change in the amount of dye leakage into surrounding tissue. Inhibition of mediator release by compounds that modulate mast cell degranulation is easily measured by extracting the dye from the tissue.
In the PCA assay mice are passively sensitized by intradermal injection with anti-dinitrophenol (DNP) IgE antibodies (Day −1). At predetermined times animals are treated with the test agent (Day 0). The modulatory effect of the agent on cutaneous mast cell degranulation is measured following intravenous injection of DNP conjugated to human serum albumin (HSA-DNP), together with Evans blue dye. The resulting cross-linking of the IgE receptor and subsequent mast cell degranulation-induced increase in vascular permeability is determined by measuring the amount of dye extravasation into the tissue. Dye is extracted from the tissue by formamide, and the absorbance of this extract is read at 620 nm.

The next data set concerns the target Syk kinase (Homo sapiens (Human), UniProt P43405). The experiment in a line: Isolated Syk kinase: phosphorylation of a peptide substrate or endogenous substrate (LAT).
Data set [6] deals with cultured human mast cells (CHMC). The experiment in a line: CHMC high cell density IgE activation: hexos (hexosaminidase) release. It counts as cell-based. To be noted: anti-IgE activation. The procedure, abridged: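 IgE-sensitized CHMC at 1-2×10^6 cells/ml were pretreated with compound for 1 h at 37 °C (0.5% DMSO final), then anti-IgE-stimulated for 1 h and supernatant collected. Hexosaminidase was read with a fluorogenic substrate. Pellets were re-incubated 7 h with compound before supernatant ELISAs.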

The test system is the same in data set [7]. The experiment in a line: CHMC high cell density IgE activation: tryptase. It counts as cell-based. Particulars: anti-IgE activation. The procedure, abridged: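 IgE-sensitized CHMC at 1-2×10^6 cells/ml in MT buffer were pretreated with compound for 1 h at 37 °C (0.5% DMSO final), then stimulated with anti-IgE for 1 h. Tryptase was measured in 1:500-diluted supernatant. Pellets were re-incubated for 7 h with compound in CM media, and supernatants were assayed by ELISA.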

In data set [8] the test system is bone marrow derived mast cells (BMMC). The experiment in a line: BMMC high cell density IgE activation: IL-6. It counts as cell-based, mouse. To be noted: anti-IgE, second part of TABLE 1. In a few lines:
as §1

Where [9] appears, read: increasing concentrations, FIG. 8.

Experimental findings from patent publication US9499493B2, “2,4-pyrimidinediamine compounds and their uses” (Rigel Pharmaceuticals, Inc., priority 2002, dated 2016) are described below.

One may read the IC50 as the concentration needed to halve the response being measured.

As for `CNC(=O)COc1cccc(Nc2ncc(F)c(Nc3ccc4c(c3)NCCO4)n2)c1` [R921219, N4-(1,4-Benzoxazin-6-yl)-5-fluoro-N2-[3-(N-methylamino)carbonylmethyleneoxyphenyl]-2,4-pyrimidinediamine], the “phosphorylation of various proteins downstream of Syk kinase” value with BMMC cells is reported as “inhibit”. The IC50 was determined as 175 nM in [1]; 58 nM in data set [2]; 40 nM in data set [3]; 39 nM in [4]; 20 nM with basophil cells. Besides, the figures for the “% Inhibition (PCA)” value in data set [5] (30 mg/kg), in data set [5] (100 mg/kg) and in data set [5] (300 mg/kg) were 25%, 68% and 92%, respectively. Besides, the values for the Plasma level in data set [5] (30 mg/kg), in data set [5] (100 mg/kg) and in [5] (300 mg/kg) were 400 ng/mL, 4000 ng/mL and 11000 ng/mL, respectively. In data set [5] (mouse, in vivo), the “circulating exposure levels at which active” value is “approximately 10 μg/ml”. Also, in data set [5] (solution (67% PEG/33% citrate buffer) or aqueous suspension (1.5% Avicel)), the “FcεR-mediated vascular leakage with increasing doses (in words)” value is on record as “dose-dependent inhibition”. For the same compound, the “mode of inhibition of Syk kinase” value on Syk kinase (FIG. 9) is on record as “ATP competitive”. Moreover, on Syk kinase (setting [9]), the “Syk kinase phosphorylation of a peptide substrate” value is reported as “dose responsive inhibition”. Further, on Syk kinase (setting [9]), the “Syk kinase phosphorylation of an endogenous substrate (LAT)” value was “dose responsive inhibition”.
Regarding `CNC(=O)COc1cccc(Nc2ncc(F)c(Nc3cccc(O)c3)n2)c1` [R926508, 5-Fluoro-N4-(3-hydroxyphenyl)-N2-[3-(N-methylamino)carbonylmethyleneoxyphenyl]-2,4-pyrimidinediamine], the 50% inhibitory concentration (IC50) in data set [6] is 170 nM; in data set [7], 434 nM; in data set [1], 763 nM; in [3], 162 nM; in [4], 54 nM; in data set [8], 26 nM. Also, the IC50 in the data set with basophil cells turned out to be 54 nM.
